Measurements as given in patent publication US20090029984A1 (priority 2005, published 2009).
Several values for one entry are separate records, joined by “and”; a condition that tells them apart may be missing. Identical values can stand only once. Entries after “also recorded” stand apart in the source; their conditions may differ. Like-named read-outs stand apart in the source and are kept apart here.

How the values were obtained:
[1] = tested on: mice; settings: mouse, in vivo
[2] = rat, cited from earlier work
[3] = biological target: T1, human CB2 receptor (Homo sapiens, UniProt P34972); assay: Efficacy and potency at the human CB2 receptor expressed in CHO cells (cAMP, forskolin); assay type: cell-based
T1 construct: expressed in transfected cells; host or cells: CHO cells
T1 sequence (P34972 whole entry): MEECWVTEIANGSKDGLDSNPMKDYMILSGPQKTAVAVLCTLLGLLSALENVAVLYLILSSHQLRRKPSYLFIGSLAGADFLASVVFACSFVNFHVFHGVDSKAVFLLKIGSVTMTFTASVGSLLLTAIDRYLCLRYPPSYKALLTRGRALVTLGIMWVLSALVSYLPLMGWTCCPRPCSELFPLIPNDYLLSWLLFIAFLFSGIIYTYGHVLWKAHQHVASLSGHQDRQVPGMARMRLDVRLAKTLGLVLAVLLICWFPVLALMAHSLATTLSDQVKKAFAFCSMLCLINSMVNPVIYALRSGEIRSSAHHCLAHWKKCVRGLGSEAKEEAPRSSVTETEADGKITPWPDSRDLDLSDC

Which “% of MPE” value ([1]; iv) does the source give for CN1CC[C@]23c4c5ccc(O)c4O[C@H]2[C@@H](O)C=C[C@H]3[C@H]1C5 [morphine, reference compound] here?
The value was 47.7% and 42.9%.

For Cl.O=C(NCCO)[C@H]1CCCN(Cc2nc(-c3cn(CC4CCS(=O)(=O)CC4)c4c(Cl)cccc34)ns2)C1 [Compound 2, (S)-7-Chloro-3-[(5-{[3-N-(2-hydroxyethyl)carboxamido]piperidin-1-yl}methyl)([1,2,4]-thiadiazol-3-yl)]-1-(1,1-dioxo-hexahydrothiopyran-4-yl)methyl-1H-indole, hydrochloride salt], which “combination versus opioid on its own (in words)” value [1] is on record?
The value was “significantly different”.

What about the “time of maximum effect post-injection” value ([1]; iv) of the same molecule?
The value was 20 min.

What about the “effect of co-administration on tail flick latency (in words)” value ([1]; iv, hydrochloride salt) of the same molecule?
Its value is “increased tail flick latency in a dose-dependent manner; also recorded: dose-dependent potentiation”.

Which brain-to-plasma ratio ([2]; Alozie et al 1980) does the source give for CCCCCc1cc(O)c2c(c1)OC(C)(C)c1ccc(C)cc1-2 [cannabinol] here?
Its brain-to-plasma ratio is 0.88.

With CCCCCc1cc(O)c2c(c1)OC(C)(C)[C@@H]1CCC(C)=C[C@@H]21 [Δ^9THC, Δ^9-tetrahydrocannabinol] as the molecule, how does the brain-to-plasma ratio ([2]; Alozie et al 1980) read?
Its brain-to-plasma ratio is 0.96.

What about the brain-to-plasma ratio ([2]; Dyson et al 2005) of the same molecule?
Its brain-to-plasma ratio is 1.0.

With Cc1c(C(=O)c2cccc3ccccc23)c2cccc3c2n1[C@H](CN1CCOCC1)CO3 [WIN55, 212-2] as the molecule, how does the brain-to-plasma ratio ([2]; Dyson et al 2005) read?
The brain-to-plasma ratio was 1.3-1.9.

Which “% of MPE” value ([1]; iv) does the source give for COc1ccc2c3c1O[C@H]1[C@@H](O)C=C[C@H]4[C@@H](C2)N(C)CC[C@@]341 [Codeine, reference compound] here?
The value was 44.2%.

What about the “Tail flick latency (s) + s.e.m. at Tmax” value ([1]; iv) of the same molecule?
The value was 6.95 ± 0.84 s.

Which results are given for CCOC(=O)c1c(C)cc2nc(COC(=O)NCCO)n(-c3ccccc3S(=O)(=O)NC)c(=O)c2c1C [Compound 1a, 2-(2-Hydroxy-ethylcarbamoyloxymethyl)-5,7-dimethyl-3-(2-methylsulfamoylphenyl)-4-oxo-3,4-dihydro-quinazoline-6-carboxylic acid ethyl ester]?
EC50 [3]: 3.5 nM; Emax ([3]; CHO, relative to maximal response (100%) obtained with CP 55940, human CB2): 107%; effect on tail flick latency (in words) [1]: had no effect on tail flick latency; effect on tail flick latency (in words) ([1]; iv): had no effect on tail flick latency; also recorded: did not increase the tail flick latency; time of maximum effect post-injection ([1]; iv): 40 min

Which brain-to-plasma ratio ([2]; Alozie et al 1980) does the source give for C=C(C)[C@@H]1CCC(C)=C[C@H]1c1c(O)cc(CCCCC)cc1O [cannabidiol] here?
The brain-to-plasma ratio was 2.61.
